Experimental data published in PubChem BioAssay AID330 (DTP/NCI, 2004).
Where “and” joins values, the source holds several entries; their conditions need not be identical. Identical values can stand only once. Inconclusive results and toxic doses are left out. Peptide text beside a SMILES is read from it. * marks the point of attachment. Cbz = O=C(OCc1ccccc1)*; CH2Cl = ClC*

Test system: P388 leukemia ip, CD2F1 mice, survival T/C
Experiment: NCI In Vivo Anticancer Drug Screen. Data for tumor model P388 Leukemia (intraperitoneal) in CD2F1 (CDF1) mice
Settings: higher = longer survival
Method in brief: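 Mice carrying the transplanted tumor received test compound or vehicle. Survival was recorded in each group, and the value is the treated-group measurement divided by that of the vehicle-treated control group.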

[1] = endpoint: median survival time, dose: 60.0 mg/kg/injection, schedule: Q01DX005 (ip), vehicle: saline with Tween-80
[2] = endpoint: median survival time, dose: 120.0 mg/kg/injection, schedule: Q01DX005 (ip), vehicle: saline with Tween-80
[3] = endpoint: median survival time, dose: 240.0 mg/kg/injection, schedule: Q01DX005 (ip), vehicle: saline with Tween-80
[4] = endpoint: median survival time, dose: 50.0 mg/kg/injection, schedule: Q01DX005 (ip), vehicle: Klucel (hydroxypropylcellulose) (HPC)
[5] = endpoint: median survival time, dose: 100.0 mg/kg/injection, schedule: Q01DX005 (ip), vehicle: Klucel (hydroxypropylcellulose) (HPC)
[6] = endpoint: median survival time, dose: 200.0 mg/kg/injection, schedule: Q01DX005 (ip), vehicle: Klucel (hydroxypropylcellulose) (HPC)
[7] = endpoint: median survival time, dose: 60.0 mg/kg/injection, schedule: Q01DX005 (ip), vehicle: saline
[8] = endpoint: median survival time, dose: 120.0 mg/kg/injection, schedule: Q01DX005 (ip), vehicle: saline
[9] = endpoint: median survival time, dose: 50.0 mg/kg/injection, schedule: Q01DX009 (ip), vehicle: Klucel (hydroxypropylcellulose) (HPC)
[10] = endpoint: median survival time, dose: 100.0 mg/kg/injection, schedule: Q01DX009 (ip), vehicle: Klucel (hydroxypropylcellulose) (HPC)
[11] = endpoint: median survival time, dose: 4.0 mg/kg/injection, schedule: Q01DX009 (ip), vehicle: Klucel (hydroxypropylcellulose) (HPC)
[12] = endpoint: median survival time, dose: 50.0 mg/kg/injection, schedule: Q01DX009 (ip), vehicle: saline with Tween-80
[13] = endpoint: median survival time, dose: 100.0 mg/kg/injection, schedule: Q01DX009 (ip), vehicle: saline with Tween-80
[14] = endpoint: median survival time, dose: 12.5 mg/kg/injection, schedule: Q01DX009 (ip), vehicle: saline
[15] = endpoint: median survival time, dose: 25.0 mg/kg/injection, schedule: Q01DX009 (ip), vehicle: saline
[16] = endpoint: median survival time, dose: 50.0 mg/kg/injection, schedule: Q01DX009 (ip), vehicle: saline

In the case of C[Si](C)(C)ONC(=O)c1ccccc1, the T/C (endpoint: median survival time, dose: 6.25 mg/kg/injection, schedule: Q01DX009 (ip), vehicle: distilled water + Tween-80) is reported as 100 % of control, the T/C (endpoint: median survival time, dose: 12.5 mg/kg/injection, schedule: Q01DX009 (ip), vehicle: distilled water + Tween-80) is reported as 92 % of control and the T/C (endpoint: median survival time, dose: 25.0 mg/kg/injection, schedule: Q01DX009 (ip), vehicle: distilled water + Tween-80) is reported as 109 % of control. For the same molecule, the T/C (endpoint: median survival time, dose: 50.0 mg/kg/injection, schedule: Q01DX009 (ip), vehicle: distilled water + Tween-80) was 102 % of control, the T/C (endpoint: median survival time, dose: 100.0 mg/kg/injection, schedule: Q01DX009 (ip), vehicle: distilled water + Tween-80) was 99 % of control and the T/C (endpoint: median survival time, dose: 200.0 mg/kg/injection, schedule: Q01DX009 (ip), vehicle: distilled water + Tween-80) was 105 % of control.

In the case of C=C1N=NN(c2cccc(C(F)(F)F)c2)C1N1CCOCC1 (stereo unspecified), the T/C [1] is reported as 99 % of control and the T/C [2] is reported as 100 % of control.

CCN(CC)c1cccc(Nc2nc3ccccc3s2)c1 was tested, and the T/C (endpoint: median survival time, dose: 60.0 mg/kg/injection, schedule: Q01DX005 (ip), vehicle: Klucel (hydroxypropylcellulose) (HPC)) was 97 % of control, the T/C (endpoint: median survival time, dose: 120.0 mg/kg/injection, schedule: Q01DX005 (ip), vehicle: Klucel (hydroxypropylcellulose) (HPC)) was 88 % of control and the T/C (endpoint: median survival time, dose: 240.0 mg/kg/injection, schedule: Q01DX005 (ip), vehicle: Klucel (hydroxypropylcellulose) (HPC)) was 93 % of control.

With CC(C)NC(=O)OCc1c(COC(=O)NC(C)C)c2cccn2c2c1cnn2-c1ccccc1 the T/C (endpoint: median survival time, dose: 30.0 mg/kg/injection, schedule: Q01DX005 (ip), vehicle: saline with Tween-80) was 87 % of control, the T/C [1] was 89 % of control and the T/C [2] was 89 % of control and 91 % of control. For the same molecule, the T/C [3] was 96 % of control.

For COc1cc2c(c(OC)c1OC)-c1cc3c(cc1C(OC1c4cc5c(cc4-c4c(cc(OC)c(OC)c4OC)CC4C(=O)OCC41)OCO5)C1COC(=O)C1C2)OCO3 (stereo unspecified), the T/C (endpoint: median survival time, dose: 2.5 mg/kg/injection, schedule: Q01DX005 (ip), vehicle: Klucel (hydroxypropylcellulose) (HPC)) was 109 % of control, the T/C (endpoint: median survival time, dose: 5.0 mg/kg/injection, schedule: Q01DX005 (ip), vehicle: Klucel (hydroxypropylcellulose) (HPC)) was 98 % of control and the T/C (endpoint: median survival time, dose: 10.0 mg/kg/injection, schedule: Q01DX005 (ip), vehicle: Klucel (hydroxypropylcellulose) (HPC)) was 92 % of control. The T/C (endpoint: median survival time, dose: 20.0 mg/kg/injection, schedule: Q01DX005 (ip), vehicle: Klucel (hydroxypropylcellulose) (HPC)) was 109 % of control.

With O=C(Nc1c2ccccc2nc2ccccc12)c1ccc([N+](=O)[O-])cc1 the T/C [4] was 94 % of control, the T/C [5] was 94 % of control and the T/C [6] was 100 % of control.

With CCOC(=O)C1=C(C)/C(=C/c2[n-]c(C)c(C(=O)OCC)c2C)N=C1C.CCOC(=O)C1=C(C)/C(=C/c2[n-]c(C)c(C(=O)OCC)c2C)N=C1C.[Co+2] the T/C (endpoint: mean survival time, dose: 12.5 mg/kg/injection, schedule: Q01DX001 (ip), vehicle: saline with Tween-80) was 95 % of control, the T/C (endpoint: mean survival time, dose: 25.0 mg/kg/injection, schedule: Q01DX001 (ip), vehicle: saline with Tween-80) was 92 % of control and the T/C (endpoint: mean survival time, dose: 50.0 mg/kg/injection, schedule: Q01DX001 (ip), vehicle: saline with Tween-80) was 90 % of control.

With NC(Cc1cnc[nH]1)C(=O)NC(Cc1ccc(O)cc1)C(=O)O (stereo not drawn) (H-His-Tyr-OH; configuration not given here) the T/C [7] was 100 % of control, the T/C [8] was 101 % of control and the T/C (endpoint: median survival time, dose: 240.0 mg/kg/injection, schedule: Q01DX005 (ip), vehicle: saline) was 100 % of control.

For NC(CSC(c1ccccc1)(c1ccccc1)c1ccccc1)C(=O)NCC(=O)O (stereo unspecified), the T/C (endpoint: median survival time, dose: 600.0 mg/kg/injection, schedule: Q01DX009 (ip), vehicle: saline with Tween-80) was 122 % of control.

In the case of COc1ccc(-c2nn3c(=O)c(Cc4ccccc4)c(O)nc3nc2-c2ccccc2)cc1, the T/C (endpoint: median survival time, dose: 6.25 mg/kg/injection, schedule: Q01DX005 (ip), vehicle: Klucel (hydroxypropylcellulose) (HPC)) is reported as 103 % of control and the T/C (endpoint: median survival time, dose: 12.5 mg/kg/injection, schedule: Q01DX005 (ip), vehicle: Klucel (hydroxypropylcellulose) (HPC)) is reported as 93 % of control.

With S=c1[nH]c(=S)c2[nH]cnc2[nH]1 the T/C (endpoint: median survival time, dose: 50.0 mg/kg/injection, schedule: Q01DX005 (ip), vehicle: saline with Tween-80) was 102 % of control, the T/C (endpoint: median survival time, dose: 100.0 mg/kg/injection, schedule: Q01DX005 (ip), vehicle: saline with Tween-80) was 100 % of control and the T/C (endpoint: median survival time, dose: 200.0 mg/kg/injection, schedule: Q01DX005 (ip), vehicle: saline with Tween-80) was 100 % of control.

For Cc1c(NC(=S)Nc2ccc(Cl)c(Cl)c2)c(=O)n(-c2ccccc2)n1C, the T/C [9] was 106 % of control, the T/C [10] was 93 % of control and the T/C (endpoint: median survival time, dose: 200.0 mg/kg/injection, schedule: Q01DX009 (ip), vehicle: Klucel (hydroxypropylcellulose) (HPC)) was 88 % of control.

COC(=O)[C@H]1[C@H]2C[C@@H]3c4[nH]c5cc(OC)ccc5c4CCN3C[C@H]2C[C@@H](OC(=O)c2cc(OC)c(OC)c(OC)c2)[C@@H]1OC was tested, and the T/C (endpoint: median survival time, dose: 0.25 mg/kg/injection, schedule: Q01DX009 (ip), vehicle: Klucel (hydroxypropylcellulose) (HPC)) was 100 % of control, the T/C (endpoint: median survival time, dose: 0.5 mg/kg/injection, schedule: Q01DX009 (ip), vehicle: Klucel (hydroxypropylcellulose) (HPC)) was 97 % of control and the T/C (endpoint: median survival time, dose: 1.0 mg/kg/injection, schedule: Q01DX009 (ip), vehicle: Klucel (hydroxypropylcellulose) (HPC)) was 97 % of control. The T/C (endpoint: median survival time, dose: 2.0 mg/kg/injection, schedule: Q01DX009 (ip), vehicle: Klucel (hydroxypropylcellulose) (HPC)) was 95 % of control and the T/C [11] was 96 % of control.

In the case of Cc1ccc(/C=C/C(=O)C(C)(C)CN(C)CCN(C)C)cc1, the T/C [7] is reported as 103 % of control and the T/C [8] is reported as 98 % of control.

With Cc1cn(CCCn2cnc3c(N)ncnc32)c(=O)[nH]c1=O the T/C [1] was 95 % of control, the T/C [2] was 98 % of control and the T/C [3] was 107 % of control.

COc1nc(NC2OCC(O)C(O)C2O)c(Cl)c(=O)n1C (stereo unspecified) was tested, and the T/C [1] was 93 % of control, the T/C [2] was 90 % of control and the T/C [3] was 100 % of control.

C=CC(=O)NC(O)C(Cl)(Cl)Cl (stereo unspecified) was tested, and the T/C [4] was 98 % of control, the T/C [5] was 98 % of control and the T/C [6] was 102 % of control.

For O=c1oc(-c2cc([N+](=O)[O-])cc([N+](=O)[O-])c2Cl)nc2ccccc12, the T/C (endpoint: median survival time, dose: 12.5 mg/kg/injection, schedule: Q01DX009 (ip), vehicle: Klucel (hydroxypropylcellulose) (HPC)) was 103 % of control and 110 % of control, the T/C (endpoint: median survival time, dose: 25.0 mg/kg/injection, schedule: Q01DX009 (ip), vehicle: Klucel (hydroxypropylcellulose) (HPC)) was 105 % of control and 110 % of control and the T/C [9] was 103 % of control and 94 % of control. The T/C [10] was 105 % of control.

With CCOC(=N)Cc1ccccc1 the T/C (endpoint: median survival time, dose: 25.0 mg/kg/injection, schedule: Q01DX009 (ip), vehicle: saline with Tween-80) was 103 % of control, the T/C [12] was 94 % of control and the T/C [13] was 101 % of control. The T/C (endpoint: median survival time, dose: 200.0 mg/kg/injection, schedule: Q01DX009 (ip), vehicle: saline with Tween-80) was 100 % of control.

With Cc1ccc2cccc(OC(=O)Nc3ccc(Cl)c(Cl)c3)c2n1 the T/C [14] was 98 % of control, the T/C [15] was 103 % of control and the T/C [12] was 91 % of control. For the same molecule, the T/C [16] was 103 % of control and the T/C [13] was 105 % of control.

For CCOC(=O)CC1(C)C(=O)CCCC1=O, the T/C (endpoint: median survival time, dose: 100.0 mg/kg/injection, schedule: Q04DX003 (ip), vehicle: saline) was 101 % of control, the T/C (endpoint: median survival time, dose: 200.0 mg/kg/injection, schedule: Q04DX003 (ip), vehicle: saline) was 100 % of control and the T/C (endpoint: median survival time, dose: 400.0 mg/kg/injection, schedule: Q04DX003 (ip), vehicle: saline) was 100 % of control.

With CC(C)NCC(O)COc1cccc2ccccc12 (stereo unspecified) the T/C [11] was 97 % of control, the T/C (endpoint: median survival time, dose: 8.0 mg/kg/injection, schedule: Q01DX009 (ip), vehicle: Klucel (hydroxypropylcellulose) (HPC)) was 98 % of control and the T/C (endpoint: median survival time, dose: 16.0 mg/kg/injection, schedule: Q01DX009 (ip), vehicle: Klucel (hydroxypropylcellulose) (HPC)) was 100 % of control. For the same molecule, the T/C (endpoint: median survival time, dose: 32.0 mg/kg/injection, schedule: Q01DX009 (ip), vehicle: Klucel (hydroxypropylcellulose) (HPC)) was 95 % of control and the T/C (endpoint: median survival time, dose: 64.0 mg/kg/injection, schedule: Q01DX009 (ip), vehicle: Klucel (hydroxypropylcellulose) (HPC)) was 113 % of control.

In the case of COc1cc(C(C)c2cc3c(cc2OCCO)OCO3)cc(OC)c1OC (stereo unspecified), the T/C (endpoint: median survival time, dose: 25.0 mg/kg/injection, schedule: Q01DX005 (ip), vehicle: saline with Tween-80) is reported as 92 % of control and 94 % of control and the T/C (endpoint: median survival time, dose: 400.0 mg/kg/injection, schedule: Q01DX005 (ip), vehicle: saline with Tween-80) is reported as 161 % of control and 180 % of control.

With CC(C)CC(NC(=O)OCc1ccccc1)C(=O)NC(Cc1ccccc1)C(=O)CCl (stereo not drawn) (Cbz-Leu-Phe-CH2Cl; configuration not given here) the T/C (endpoint: median survival time, dose: 6.25 mg/kg/injection, schedule: Q01DX009 (ip), vehicle: saline) was 107 % of control, the T/C [14] was 106 % of control and the T/C [15] was 111 % of control. The T/C [16] was 113 % of control and the T/C (endpoint: median survival time, dose: 100.0 mg/kg/injection, schedule: Q01DX009 (ip), vehicle: saline) was 120 % of control.
